Measurements as given in patent US20120264735A1 (priority 2009, published 2012).

Molecular target: T1, c-Met kinase (recombinant c-Met) (Homo sapiens, UniProt P08581)
T1 construct: 0.27 nM recombinant c-Met
Test: In vitro kinase assay I (homogeneous time-resolved fluorescence tyrosine kinase assay)
Format: biochemical
Method in brief: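 Biotinylated peptide (0.5 μM) phosphorylated by 0.2 nM recombinant c-Met with 50 μM MgATP, 60 min at room temperature, pH 7.4, 5% DMSO. EDTA stop; HTRF read with Eu-anti-phosphotyrosine antibody and streptavidin-APC. IC50 from 4-parameter logistic fit.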

T1 sequence (P08581 25-1390): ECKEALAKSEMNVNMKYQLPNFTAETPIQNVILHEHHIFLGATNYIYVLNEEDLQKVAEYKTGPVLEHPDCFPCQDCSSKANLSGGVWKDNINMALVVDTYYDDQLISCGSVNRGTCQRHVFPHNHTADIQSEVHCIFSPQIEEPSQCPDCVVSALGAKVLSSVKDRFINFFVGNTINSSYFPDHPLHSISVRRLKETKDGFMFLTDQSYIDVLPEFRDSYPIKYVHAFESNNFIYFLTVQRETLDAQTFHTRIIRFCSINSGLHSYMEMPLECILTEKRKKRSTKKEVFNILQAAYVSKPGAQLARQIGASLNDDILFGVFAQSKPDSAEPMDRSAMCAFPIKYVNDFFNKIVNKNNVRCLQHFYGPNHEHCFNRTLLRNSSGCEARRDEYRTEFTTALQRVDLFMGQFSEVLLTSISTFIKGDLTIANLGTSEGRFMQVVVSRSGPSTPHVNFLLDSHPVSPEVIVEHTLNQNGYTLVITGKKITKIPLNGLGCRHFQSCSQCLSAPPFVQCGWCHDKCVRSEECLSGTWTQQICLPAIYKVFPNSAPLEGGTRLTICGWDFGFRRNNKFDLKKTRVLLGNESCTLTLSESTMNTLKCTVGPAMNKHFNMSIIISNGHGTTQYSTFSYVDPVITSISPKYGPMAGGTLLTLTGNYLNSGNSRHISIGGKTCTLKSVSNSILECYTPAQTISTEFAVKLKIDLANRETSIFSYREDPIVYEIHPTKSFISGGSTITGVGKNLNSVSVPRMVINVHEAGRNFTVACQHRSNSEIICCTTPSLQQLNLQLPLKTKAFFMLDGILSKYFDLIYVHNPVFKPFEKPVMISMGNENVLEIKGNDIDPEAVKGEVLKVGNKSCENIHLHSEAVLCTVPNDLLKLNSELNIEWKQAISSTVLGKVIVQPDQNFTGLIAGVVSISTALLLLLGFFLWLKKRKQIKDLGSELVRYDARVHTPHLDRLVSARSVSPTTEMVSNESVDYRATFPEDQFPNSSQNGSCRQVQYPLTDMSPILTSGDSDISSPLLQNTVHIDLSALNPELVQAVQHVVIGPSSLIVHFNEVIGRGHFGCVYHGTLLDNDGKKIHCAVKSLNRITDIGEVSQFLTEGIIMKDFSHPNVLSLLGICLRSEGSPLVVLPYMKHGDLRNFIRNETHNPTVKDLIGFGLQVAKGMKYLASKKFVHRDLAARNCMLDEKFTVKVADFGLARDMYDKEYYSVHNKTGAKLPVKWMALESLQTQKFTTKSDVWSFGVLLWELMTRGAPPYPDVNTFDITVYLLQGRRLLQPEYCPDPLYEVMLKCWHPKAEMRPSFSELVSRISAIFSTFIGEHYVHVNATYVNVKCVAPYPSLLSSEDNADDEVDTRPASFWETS

SMILES | IC50 [µM]
CCOc1cnc(-c2cccc(Oc3nn(-c4cnn(C)c4)ccc3=O)c2)nc1 [Example 755, 3-[3-(5-Ethoxypyrimidin-2-yl)phenoxy]-1-(1-methyl-1H-pyrazol-4-yl)pyridazin-4(1H)-one] | 1 to 3
CCCn1cnc(-c2cccc(Cc3nn(-c4cccc(C(N)=O)c4)ccc3=O)c2)n1 [Example 735, 3-{4-oxo-3-[3-(1-propyl-1H-1,2,4-triazol-3-yl)benzyl]pyridazin-1(4H)-yl}benzamide] | 0.1 to 1
CCOC(=O)Nc1cccc(Cc2nn(-c3cnn(CC4CCOCC4)c3)ccc2=O)c1 [Example 100, ethyl [3-({4-oxo-1-[1-(tetrahydro-2H-pyran-4-ylmethyl)-1H-pyrazol-4-yl]-1,4-dihydropyridazin-3-yl}methyl)phenyl]carbamate] | 0.1 to 1
CC(C)COC(=O)Nc1cccc(Cc2nn(-c3cnn(C4CCOCC4)c3)ccc2=O)c1 [Example 90, 2-methylpropyl [3-({4-oxo-1-[1-(tetrahydro-2H-pyran-4-yl)-1H-pyrazol-4-yl]-1,4-dihydropyridazin-3-yl}methyl)phenyl]carbamate] | 0.1 to 1
CCOc1cnc(-c2cccc(Cc3nn(-c4cccc(C(=O)N(C)C)c4)ccc3=O)c2)nc1 [Example 726, 3-{3-[3-(5-Ethoxypyrimidin-2-yl)benzyl]-4-oxopyridazin-1(4H)-yl}-N,N-dimethylbenzamide] | 0.1 to 1
CCNC(=O)Nc1cccc(Cc2nn(-c3ccccc3)ccc2=O)c1 [Example 486, 1-Ethyl-3-{3-[(4-oxo-1-phenyl-1,4-dihydropyridazin-3-yl)methyl]phenyl}urea] | 1 to 3
COCc1cnc(-c2cccc(C(C)c3nn(-c4cnn(C)c4)ccc3=O)c2)nc1 (single isomer, unassigned) [Example 219, 3-((1S or R)-1-{3-[5-(methoxymethyl)pyrimidin-2-yl]phenyl}ethyl)-1-(1-methyl-1H-pyrazol-4-yl)pyridazin-4(1H)-one] | 0.1 to 1
CCCn1cnc(-c2cccc(C(C)c3nn(-c4cnn(C)c4)ccc3=O)c2)n1 (single isomer, unassigned) [Example 684, 1-(1-methyl-1H-pyrazol-4-yl)-3-{(1S or R)-1-[3-(1-propyl-1H-1,2,4-triazol-3-yl)phenyl]ethyl} pyridazin-4(1H)-one] | 1 to 3
Cn1cc(-n2ccc(=O)c(Cc3cccc(-c4ncc(N)cn4)c3)n2)cn1 [Example 183, 3-[3-(5-Aminopyrimidin-2-yl)benzyl]-1-(1-methyl-1H-pyrazol-4-yl)pyridazin-4(1H)-one] | < 0.1
Cc1ccnc(-c2cccc(C(C)c3nn(-c4cnn(C)c4)ccc3=O)c2)n1 (single isomer, unassigned) [Example 691, 1-(1-methyl-1H-pyrazol-4-yl)-3-{(1R or S)-1-[3-(4-methylpyrimidin-2-yl)phenyl]ethyl} pyridazin-4(1H)-one] | < 0.1
CCOC(=O)Nc1cccc(Cc2nn(-c3cccc(Br)c3)ccc2=O)c1 [Example 13, ethyl (3-{[1-(3-bromophenyl)-4-oxo-1,4-dihydropyridazin-3-yl]methyl}phenyl)carbamate] | < 0.1

More lines, now with the values ahead:

IC50 [µM] | SMILES
< 0.1 | Cn1cc(-n2ccc(=O)c(Cc3cccc(-c4ncc(-c5cnc(N)nc5)cn4)c3)n2)cn1 [Example 417, 3-[3-(2′-amino-5,5′-bipyrimidin-2-yl)benzyl]-1-(1-methyl-1H-pyrazol-4-yl)pyridazin-4(1H)-one]
< 0.1 | Cn1cc(-n2ccc(=O)c(Cc3cccc(NC(=O)OCC4CCCO4)c3)n2)cn1 (racemic) [Example 562, rac-tetrahydrofuran-2-ylmethyl (3-{[1-(1-methyl-1H-pyrazol-4-yl)-4-oxo-1,4-dihydropyridazin-3-yl]methyl}phenyl)carbamate]
< 0.1 | CCOc1cnc(-c2cccc(Cc3nn(-c4cnn(C5COC5)c4)ccc3=O)c2)nc1 [Example 660, 3-[3-(5-Ethoxypyrimidin-2-yl)benzyl]-1-[1-(oxetan-3-yl)-1H-pyrazol-4-yl]pyridazin-4(1H)-one]
< 0.1 | Cn1cc(-n2ccc(=O)c(Cc3cccc(-c4ncc(CN5CCCC5)cn4)c3)n2)cn1 [Example 429, 1-(1-methyl-1H-pyrazol-4-yl)-3-{3-[5-(pyrrolidin-1-ylmethyl)pyrimidin-2-yl]benzyl}pyridazin-4(1H)-one]
< 0.1 | O=C(Nc1cccc(Cc2nn(-c3cc(F)c(F)c(F)c3)ccc2=O)c1)OCCN1CCC(C(=O)O)CC1 [Example 512, 1-(2-{[(3-{[4-oxo-1-(3,4,5-trifluorophenyl)-1,4-dihydropyridazin-3-yl]methyl}phenyl)carbamoyl]oxy}ethyl)piperidine-4-carboxylic acid]
< 0.1 | Cn1cc(-n2ccc(=O)c(Cc3cccc(NC(=O)OCC(F)CN)c3)n2)cn1 (racemic) [Example 621, rac-3-amino-2-fluoropropyl (3-{[1-(1-methyl-1H-pyrazol-4-yl)-4-oxo-1,4-dihydropyridazin-3-yl]methyl}phenyl)carbamate]
< 0.1 | COCCC(=O)Nc1cnc(-c2cccc(Cc3nn(-c4cnn(C)c4)ccc3=O)c2)nc1 [Example 458, 3-Methoxy-N-[2-(3-{[1-(1-methyl-1H-pyrazol-4-yl)-4-oxo-1,4-dihydropyridazin-3-yl]methyl}phenyl)pyrimidin-5-yl]propanamide]
< 0.1 | O=C(NCCN1CCOCC1)Nc1cccc(Cc2nn(-c3ccc(F)c(F)c3)ccc2=O)c1 [Example 496, 1-(3-{[1-(3,4-difluorophenyl)-4-oxo-1,4-dihydropyridazin-3-yl]methyl}phenyl)-3-(2-morpholin-4-ylethyl)urea]
< 0.1 | CCn1cc(-n2ccc(=O)c(C(C)c3cccc(-c4ncc(OC5CN(C(=O)OC(C)(C)C)C5)cn4)c3)n2)cn1 (single isomer, unassigned) [Example 292, tert-butyl 3-{[2-(3-{(1R or S)-1-[1-(1-ethyl-1H-pyrazol-4-yl)-4-oxo-1,4-dihydropyridazin-3-yl]ethyl}phenyl)pyrimidin-5-yl]oxy}azetidine-1-carboxylate]
< 0.1 | CCn1cc(-n2ccc(=O)c(C(C)c3cccc(-c4ncc(OCCn5cccn5)cn4)c3)n2)cn1 (single isomer, unassigned) [Example 303, 1-(1-ethyl-1H-pyrazol-4-yl)-3-[(1R or S)-1-(3-{5-[2-(1H-pyrazol-1-yl)ethoxy]pyrimidin-2-yl}phenyl)ethyl]pyridazin-4(1H)-one]
< 0.1 | Cn1cc(-n2ccc(=O)c(Cc3cccc(NC(=O)CCc4ccccc4)c3)n2)cn1 [Example 633, N-(3-{[1-(1-methyl-1H-pyrazol-4-yl)-4-oxo-1,4-dihydropyridazin-3-yl]methyl}phenyl)-3-phenylpropanamide]
< 0.1 | CCOCc1cnc(-c2cccc(C(C)c3nn(-c4cnn(C)c4)ccc3=O)c2)nc1 (racemic) [Example 221, rac-3-(1-{3-[5-(ethoxymethyl)pyrimidin-2-yl]phenyl}ethyl)-1-(1-methyl-1H-pyrazol-4-yl)pyridazin-4(1H)-one]
< 0.1 | CC(c1cccc(-c2ncc(O[C@H]3CCNC[C@H]3F)cn2)c1)c1nn(-c2cnn(C)c2)ccc1=O (stereo partly shown) [Example 344]
< 0.1 | Cn1cc(-n2ccc(=O)c(Cc3cccc(NC(=O)OCC4COCCO4)c3)n2)cn1 (racemic) [Example 568, rac-1,4-dioxan-2-ylmethyl (3-{[1-(1-methyl-1H-pyrazol-4-yl)-4-oxo-1,4-dihydropyridazin-3-yl]methyl}phenyl)carbamate]
